According to patent publication US5336621A, “Divalent hapten derivatives” (Hoechst Celanese Corporation, priority 1988, dated 1994):

Assay: Solubility comparison for bis-(theophylline-8-butyryl)-diamides
Format: physicochemical
Experimental: The bis-(theophylline-8-butyryl)-diamides of 1,6-hexanediamine and 4,9-dioxa-1,12-dodecanediamine (examples 2 and 3) were each dissolved in dimethylsulfoxide. The 4,9-dioxa-1,12-dodecanediamide dissolved readily to give a solution of 10 mg/0.5 ml at room temperature.

Row | SMILES | behaviour on dilution of DMSO solution into aqueous phosphate buffer (10 mg/2 ml DMSO solution diluted into a two-fold volume of pH 7.5 phosphate buffer) | solution obtained in dimethylsulfoxide (required heating to obtain a solution in dimethylsulfoxide) | behaviour on dilution of DMSO solution into aqueous phosphate buffer (10 mg/0.5 ml DMSO solution diluted into 2 ml of 50 mM aqueous sodium phosphate buffer (pH 7.5)) | solution obtained in dimethylsulfoxide (dissolved readily in dimethylsulfoxide, room temperature)
1 | Cn1c(=O)c2[nH]c(CCCC(=O)NCCCCCCNC(=O)CCCc3nc4c([nH]3)c(=O)n(C)c(=O)n4C)nc2n(C)c1=O [Example 2, bis-(Theophylline-8-butyryl)-1,6-hexanediamine] | immediate heavy precipitation of divalent hapten was noted | 10 mg/2 ml |  | 
2 | Cn1c(=O)c2[nH]c(CCCC(=O)NCCCOCCCCOCCCNC(=O)CCCc3nc4c([nH]3)c(=O)n(C)c(=O)n4C)nc2n(C)c1=O [Example 3, bis-(Theophylline-8-butyryl)-4,9-dioxa-1,12-dodecane-diamide] |  |  | clear, stable solution | 10 mg/0.5 ml
